Assay results as given in ChEMBL document CHEMBL1201862, “PubChem BioAssay data set” (2004).
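Five concentrations, 48 hours, 96-well plates. Abbreviation: GI50, concentration required for 50% inhibition of growth.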 Active and inactive are the calls of the source. Rule as the data show it: active = GI50 up to about 1.1 µM and inactive = higher. Starred links: 1 amine or outer side, 2 acyl side, 3 side chain; linkers in the order of their positions; H or OH if unused. Positions of bridges follow the written chain, without caps; N, C: chain ends. Non-standard residues stand in square brackets, D forms with d. Square brackets hold non-standard residues; d marks the D form. Residues, ends and D or L forms follow the SMILES beside them. Chains are numbered I, II in the order given. Peptide text beside a SMILES is read from it. * marks the point of attachment. Actinocin(1to9) = Cc1c2oc3c(C)ccc(C(=O)[*:2])c3nc-2c(C(=O)[*:1])c(N)c1=O; X26 = COC1=CC(=O)N(C(=O)[C@@H](O*)C(C)C)[C@H]1Cc1ccccc1; aThr = C[C@H](O)[C@H](N)C(=O)O; NMeL = CN[C@@H](CC(C)C)C(=O)O; NMeV = CN[C@H](C(=O)O)C(C)C; Hexanoyl = CCCCCC(=O)*; Sar = CNCC(=O)O

Tests used:
Test in all cases: NCI tumour cell line growth inhibition, 48 h
PC-3 = system: PC-3
OVCAR-5 = system: OVCAR-5
DU-145 = system: DU-145
TK-10 = system: TK-10
MDA-MB-435 = system: MDA-MB-435
UACC-257 = system: UACC-257
RXF 393 = system: RXF 393
NCI-H522 = system: NCI-H522
M14 = system: M14
U-251 = system: U-251
OVCAR-4 = system: OVCAR-4
HCT-116 = system: HCT-116
HOP-62 = system: HOP-62
EKVX = system: EKVX
786-0 = system: 786-0
HCC 2998 = system: HCC 2998
Malme-3M = system: Malme-3M
NCI-H460 = system: NCI-H460
UACC-62 = system: UACC-62
CAKI-1 = system: CAKI-1

Row | Compound | GI50 (PC-3) | GI50 (OVCAR-5) | GI50 (DU-145) | GI50 (TK-10) | GI50 (MDA-MB-435) | GI50 (UACC-257) | GI50 (RXF 393) | GI50 (NCI-H522) | GI50 (M14) | GI50 (U-251) | GI50 (OVCAR-4) | GI50 (HCT-116) | GI50 (HOP-62) | GI50 (EKVX) | GI50 (786-0) | GI50 (HCC 2998) | GI50 (Malme-3M) | GI50 (NCI-H460) | GI50 (UACC-62) | GI50 (CAKI-1)
1 | COC(=O)C(C)(/N=C/c1ccccc1)c1ccccc1 (stereo not given) | > 100 µM (inactive) | > 100 µM (inactive) | > 100 µM (inactive) | > 100 µM (inactive) | > 100 µM (inactive) | > 100 µM (inactive) | > 100 µM (inactive) | > 100 µM (inactive) | > 100 µM (inactive) | > 100 µM (inactive) | > 100 µM (inactive) | > 100 µM (inactive) | > 100 µM (inactive) | > 100 µM (inactive) | > 100 µM (inactive) | > 100 µM (inactive) | > 100 µM (inactive) | > 100 µM (inactive) | > 100 µM (inactive) | > 100 µM (inactive)
2 | CC(=O)OC(CC(C)C)P1(=O)N(CC(C)(C)C)[C@@H]2CCCC[C@H]2N1CC(C)(C)C (stereo not given in full) | 3.73 µM (inactive) | 10.2 µM (inactive) | 15.3 µM (inactive) | 11.7 µM (inactive) | 12.3 µM (inactive) | 8.41 µM (inactive) | 6.38 µM (inactive) | 6.4 µM (inactive) | 7.4 µM (inactive) | 7.08 µM (inactive) | 9.42 µM (inactive) | 5.24 µM (inactive) | 14.6 µM (inactive) | 11.2 µM (inactive) | 10.8 µM (inactive) | 6.38 µM (inactive) | 9.33 µM (inactive) | 8.57 µM (inactive) | 10.1 µM (inactive) | 12.7 µM (inactive)
3 | COc1ccc(-c2nc(N)n(C)c2SSc2c(-c3ccc(OC)cc3)nc(N)n2C)cc1 | 6.34 µM (inactive) | 6.85 µM (inactive) | 17.3 µM (inactive) | 14.5 µM (inactive) | 3.92 µM (inactive) | 5.96 µM (inactive) | 2.74 µM (inactive) | 1.81 µM (inactive) | 2.19 µM (inactive) | 13 µM (inactive) | 6.59 µM (inactive) | 2.65 µM (inactive) | 17.5 µM (inactive) | 20.8 µM (inactive) | 5.77 µM (inactive) | 17.8 µM (inactive) | 9.42 µM (inactive) | 20.8 µM (inactive) | 3.81 µM (inactive) | 10.1 µM (inactive)
4 | N=C(N)SCc1cc(Cl)cc(Cl)c1O | 19.3 µM (inactive) | 16.3 µM (inactive) | 17.6 µM (inactive) | 18.8 µM (inactive) | 19.7 µM (inactive) | 16.9 µM (inactive) | 19.9 µM (inactive) | 15.9 µM (inactive) | 16.6 µM (inactive) | 15.7 µM (inactive) | 23.3 µM (inactive) | 16.3 µM (inactive) | 18.8 µM (inactive) | 15.2 µM (inactive) | 18 µM (inactive) | 17.7 µM (inactive) | 21.6 µM (inactive) | 18.1 µM (inactive) | 17.3 µM (inactive) | 18.6 µM (inactive)
5 | C=C1C(=O)O[C@@H]2[C@@H]3O[C@@H](C[C@@H]13)[C@](C)(O)CC/C=C(\C)CCC[C@@H]2C | 10.4 µM (inactive) | 22 µM (inactive) | 14.2 µM (inactive) | 14.4 µM (inactive) | 7.87 µM (inactive) | 12.3 µM (inactive) | 13.6 µM (inactive) | 5.87 µM (inactive) | 12.2 µM (inactive) | 10.5 µM (inactive) | 14.5 µM (inactive) | 8.13 µM (inactive) | 15.9 µM (inactive) | 15 µM (inactive) | 5.42 µM (inactive) | 17.7 µM (inactive) | 13.3 µM (inactive) | 14.1 µM (inactive) | 12.4 µM (inactive) | 13 µM (inactive)
6 | O=C(CBr)c1ccc2cc(Br)c3ccccc3c2c1 | 21 µM (inactive) | 24.7 µM (inactive) | 22.8 µM (inactive) | 21 µM (inactive) | 19.9 µM (inactive) | 24 µM (inactive) | 18.3 µM (inactive) | 16.4 µM (inactive) | 25.1 µM (inactive) | 46.3 µM (inactive) | 25.3 µM (inactive) | 40.3 µM (inactive) | 37.4 µM (inactive) | 24.5 µM (inactive) | 37.6 µM (inactive) | 54.2 µM (inactive) | 15.9 µM (inactive) | 23 µM (inactive) | 14.1 µM (inactive) | 18.2 µM (inactive)
7 | CCCCCC(=O)N[C@H](C(=O)N[C@H](C(=O)N(C)[C@@H](CC(C)C)C(=O)N1CCC[C@H]1C(=O)N1CCC[C@H]1C(=O)O[C@H](C(=O)N1C(=O)C=C(OC)[C@@H]1Cc1ccccc1)C(C)C)C(C)C)C(C)C (Hexanoyl-VV[NMeL]PP-X26) | 27.2 µM (inactive) | > 100 µM (inactive) | > 43.8 µM (inactive) | > 100 µM (inactive) | 47.9 µM (inactive) | 45.3 µM (inactive) | 10.1 µM (inactive) | > 100 µM (inactive) | > 33.3 µM (inactive) | > 91.6 µM (inactive) | > 76.9 µM (inactive) | 54.7 µM (inactive) | > 100 µM (inactive) | > 100 µM (inactive) | > 91 µM (inactive) | > 74.3 µM (inactive) | > 20.5 µM (inactive) | > 100 µM (inactive) | > 100 µM (inactive) | 74.6 µM (inactive)
8 | Cc1c2oc3c(C)ccc(C(=O)N[C@@H]4C(=O)N[C@H](C(C)C)C(=O)N5CCC[C@H]5C(=O)N(C)CC(=O)N(C)[C@@H](C(C)C)C(=O)O[C@H]4C)c3nc-2c(C(=O)N[C@@H]2C(=O)N[C@H](C(C)C)C(=O)N3CCC[C@H]3C(=O)N(C)CC(=O)N(C)[C@@H](C(C)C)C(=O)O[C@H]2C)c(N)c1=O (I: [aThr][dV]P[Sar][NMeV] / II: [aThr][dV]P[Sar][NMeV]; ester I:1-I:C, II:1-II:C; linker I:N-II:N via Actinocin(1to9)) | 0.00134 µM (active) | 0.00611 µM (active) | 0.00393 µM (active) | 0.0149 µM (active) | 0.000871 µM (active) | 0.00255 µM (active) | 0.00258 µM (active) | 0.000506 µM (active) | 0.00528 µM (active) | 0.000611 µM (active) | 0.00583 µM (active) | 0.000332 µM (active) | 0.00217 µM (active) | 0.012 µM (active) | 0.000951 µM (active) | 0.00275 µM (active) | 0.00119 µM (active) | 0.000424 µM (active) | 0.000935 µM (active) | 0.00484 µM (active)
9 | CC(C)=CCC[C@@H](C)C1=CC(=O)C(C)=C(O)C1=O [ISOPEREZONE] | 5.01 µM (inactive) | 14.4 µM (inactive) | 6.08 µM (inactive) | 5.11 µM (inactive) | 4.31 µM (inactive) | 10.9 µM (inactive) | 2.67 µM (inactive) | 1.36 µM (inactive) | 5.25 µM (inactive) | 8.79 µM (inactive) | 7.1 µM (inactive) | 4.08 µM (inactive) | 12.9 µM (inactive) | 5.56 µM (inactive) | 5.78 µM (inactive) | 17.1 µM (inactive) | 10.2 µM (inactive) | 16.3 µM (inactive) | 9.33 µM (inactive) | 4.95 µM (inactive)
